This assay has as its target C5a anaphylatoxin chemotactic receptor 1 (Homo sapiens) (UniProt P21730). Briefly: Potency as the maximal lysosomal myeloperoxidase (MPO) release in PMNL assay.
Chain of C5a anaphylatoxin chemotactic receptor 1 (Homo sapiens) (P21730 whole entry, looked up): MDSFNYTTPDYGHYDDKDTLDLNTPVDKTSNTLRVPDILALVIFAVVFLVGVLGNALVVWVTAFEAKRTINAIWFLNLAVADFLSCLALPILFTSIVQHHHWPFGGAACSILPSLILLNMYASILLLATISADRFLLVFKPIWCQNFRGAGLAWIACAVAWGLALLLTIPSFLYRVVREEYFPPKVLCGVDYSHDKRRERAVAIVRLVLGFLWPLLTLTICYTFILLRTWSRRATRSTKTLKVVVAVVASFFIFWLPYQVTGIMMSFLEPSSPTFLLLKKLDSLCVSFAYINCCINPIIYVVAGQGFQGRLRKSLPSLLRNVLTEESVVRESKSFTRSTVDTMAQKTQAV
The compound Ac-FKDMQLGR-OH yielded an EC50 of 35 µM.

In turn, `CSCC[C@H](NC(=O)[C@H](CC(=O)O)NC(=O)[C@H](CCCCN)NC(=O)[C@@H](N)Cc1cccs1)C(=O)N[C@@H](CCC(N)=O)C(=O)N[C@@H](CC(C)C)C(=O)NCC(=O)N[C@@H](CCCNC(=N)N)C(=O)O` returned an EC50 of 200 µM.

The compound H-LRANISFKDMQLGR-OH gave a concentration for a half-maximal effect (EC50) of 60 µM.

Broadly, the EC50 is the concentration that produces a half-maximal response.

The record behind these values is BindingDB's records for doi:10.1021/jm00080a030 (Abbott Laboratories, 1992).
